Test results reported in patent US20120129833A1, “CYCLIC KETOENOLS FOR THERAPY” (BAYER PHARMA AKTIENGESELLSCHAFT, priority 2010, published 2012).

Columns and labels:
[1] = biological target: T1, ACC2 (acetyl-CoA carboxylase 2) (Homo sapiens, UniProt O00763); assay: Human ACC2 enzyme assay (HTRF ADP detection); type: biochemical; conditions: 20 μM acetyl-CoA, 15 min pre-incubation, 20 min at 22° C.; read-out: ACC 2 IC50
T1 construct: catalogue no; 50201, amino acids 39—end, expressed in baculovirus-transfected Sf9 insect cells; His (C); purchased BPS Bioscience (San Diego, Calif.) 50201; host or cells: baculovirus-transfected Sf9 insect cells
Method: The inhibitory activity of the substances of this invention with regard to acetyl-CoA carboxylase 2 (ACC2) was measured using the ACC2 assay described in the paragraphs below. The basic principle of the assay is the measurement of adenosine diphosphate (ADP), which is formed as a by-product, by means of an HTRF®-based competitive immunoassay (HTRF=Homogeneous Time Resolved Fluorescence).
(§1) The amount of complex of d2-labelled ADP and europium cryptate-labelled anti-ADP antibody was then determined by measuring the resonance energy transfer of europium cryptate to d2.

[2] = biological target: T2, recombinant human ACC1 (acetyl-CoA carboxylase 1) (Homo sapiens, UniProt Q13085); assay: Human ACC1 enzyme assay (HTRF ADP detection); type: biochemical; conditions: 50 μM ATP, 20 μM acetyl-CoA, 15 min pre-incubation, 20 min at 22° C.; read-out: ACC 1 IC50;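 note: ADP by-product quantified by competitive HTRF immunoassay with europium cryptate anti-ADP antibody and d2-labelled ADP, read after 1 h binding at 22 °C, enzyme near 2.5 ng/µl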
T2 construct: NM_198834, amino acids 39—end; FLAG (C); made in house; host or cells: baculovirus-transfected insect cells (Hi5)
Method: The basic principle of the assay is the measurement of adenosine diphosphate (ADP), which is formed as a by-product, by means of an HTRF®-based competitive immunoassay (HTRF=Homogeneous Time Resolved Fluorescence).
as §1

T1 sequence (O00763 39-2458 limits assumed): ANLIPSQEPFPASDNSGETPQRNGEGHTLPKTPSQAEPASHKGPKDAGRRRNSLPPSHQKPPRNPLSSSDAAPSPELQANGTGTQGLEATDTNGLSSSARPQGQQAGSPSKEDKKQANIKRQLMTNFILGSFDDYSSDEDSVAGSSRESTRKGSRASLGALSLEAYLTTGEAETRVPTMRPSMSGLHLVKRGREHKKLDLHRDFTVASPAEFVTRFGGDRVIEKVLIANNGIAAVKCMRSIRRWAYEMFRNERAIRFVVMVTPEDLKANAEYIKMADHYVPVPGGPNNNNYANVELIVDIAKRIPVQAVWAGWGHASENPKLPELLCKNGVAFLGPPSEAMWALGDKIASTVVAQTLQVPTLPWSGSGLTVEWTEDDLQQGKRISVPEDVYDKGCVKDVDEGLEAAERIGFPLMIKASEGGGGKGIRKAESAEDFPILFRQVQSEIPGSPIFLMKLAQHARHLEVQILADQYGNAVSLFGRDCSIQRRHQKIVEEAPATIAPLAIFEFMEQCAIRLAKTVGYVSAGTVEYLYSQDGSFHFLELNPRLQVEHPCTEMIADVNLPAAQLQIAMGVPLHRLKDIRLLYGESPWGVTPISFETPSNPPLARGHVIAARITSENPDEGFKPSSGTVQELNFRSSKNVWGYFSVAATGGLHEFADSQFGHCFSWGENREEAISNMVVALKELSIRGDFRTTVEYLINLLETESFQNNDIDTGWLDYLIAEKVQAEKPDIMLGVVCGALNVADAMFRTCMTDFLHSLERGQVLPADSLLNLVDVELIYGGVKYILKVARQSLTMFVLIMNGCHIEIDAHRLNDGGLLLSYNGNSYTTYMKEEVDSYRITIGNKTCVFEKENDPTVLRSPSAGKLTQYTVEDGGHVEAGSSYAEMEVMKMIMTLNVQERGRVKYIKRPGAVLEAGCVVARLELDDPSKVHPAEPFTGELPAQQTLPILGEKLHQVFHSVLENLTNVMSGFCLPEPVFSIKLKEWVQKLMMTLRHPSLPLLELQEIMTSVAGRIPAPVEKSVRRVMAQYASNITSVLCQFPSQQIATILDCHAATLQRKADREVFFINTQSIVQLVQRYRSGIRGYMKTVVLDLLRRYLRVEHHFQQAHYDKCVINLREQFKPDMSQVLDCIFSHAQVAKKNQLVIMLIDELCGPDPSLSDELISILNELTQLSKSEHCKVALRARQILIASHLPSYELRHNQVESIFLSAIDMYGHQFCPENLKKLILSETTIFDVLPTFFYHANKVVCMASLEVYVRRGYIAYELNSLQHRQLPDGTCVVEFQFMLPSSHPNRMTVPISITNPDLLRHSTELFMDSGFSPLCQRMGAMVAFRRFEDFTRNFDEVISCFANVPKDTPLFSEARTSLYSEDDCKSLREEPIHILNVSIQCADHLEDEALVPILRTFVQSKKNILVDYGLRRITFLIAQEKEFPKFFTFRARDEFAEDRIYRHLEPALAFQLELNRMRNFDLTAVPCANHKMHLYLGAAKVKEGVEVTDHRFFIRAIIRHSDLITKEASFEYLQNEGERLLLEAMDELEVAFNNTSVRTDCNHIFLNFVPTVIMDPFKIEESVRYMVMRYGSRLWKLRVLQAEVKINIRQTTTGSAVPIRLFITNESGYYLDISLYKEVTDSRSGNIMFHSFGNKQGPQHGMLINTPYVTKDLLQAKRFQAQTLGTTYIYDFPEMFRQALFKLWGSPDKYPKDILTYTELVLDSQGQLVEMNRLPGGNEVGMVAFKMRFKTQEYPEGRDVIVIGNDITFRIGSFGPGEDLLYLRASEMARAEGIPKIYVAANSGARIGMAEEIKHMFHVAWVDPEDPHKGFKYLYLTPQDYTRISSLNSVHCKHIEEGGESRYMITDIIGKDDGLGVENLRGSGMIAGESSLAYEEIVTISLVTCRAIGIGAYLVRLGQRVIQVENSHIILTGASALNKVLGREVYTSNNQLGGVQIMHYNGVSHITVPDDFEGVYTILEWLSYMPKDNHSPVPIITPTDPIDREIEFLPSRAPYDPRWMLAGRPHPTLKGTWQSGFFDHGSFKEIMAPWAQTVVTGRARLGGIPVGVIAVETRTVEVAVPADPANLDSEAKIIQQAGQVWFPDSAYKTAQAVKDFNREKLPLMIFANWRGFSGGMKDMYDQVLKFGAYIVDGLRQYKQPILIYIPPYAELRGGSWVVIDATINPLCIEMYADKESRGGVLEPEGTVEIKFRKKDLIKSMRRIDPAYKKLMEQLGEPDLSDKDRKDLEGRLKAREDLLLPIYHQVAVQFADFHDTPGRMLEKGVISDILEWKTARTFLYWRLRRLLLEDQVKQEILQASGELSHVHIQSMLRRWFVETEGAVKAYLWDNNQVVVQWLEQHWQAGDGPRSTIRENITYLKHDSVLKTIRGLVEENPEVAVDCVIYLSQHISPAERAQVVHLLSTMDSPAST

| Molecule | IC50 [1] [nM] | IC50 [2] [nM] |
| --- | --- | --- |
| (5r,8r)-3-(4′-chloro-2,4-dimethylbiphenyl-3-yl)-4-hydroxy-8-methoxy-8-methyl-1-azaspiro[4.5]dec-3-en-2-one [Example 1-87] | 7300 | 540 |
| Cc1ccc(-c2ccc(C(F)(F)F)cc2)cc1-c1c(O)c2ccc(Cl)cc2[nH]c1=O [Example 9-6, 7-chloro-4-hydroxy-3-[4-methyl-4′-(trifluoromethyl)biphenyl-3-yl]quinolin-2(1H)-one] | 18900 | 1090 |
| Cc1ccc(-c2ccc(Cl)cc2)cc1C1=C(O)C(C)(C)OC1=O [Example 2-3, 3-(4′-chloro-4-methylbiphenyl-3-yl)-4-hydroxy-5,5-dimethylfuran-2(5H)-one] | 11700 | 581 |
| COCCC1CCCC2(C1)OC(=O)C(c1cc(-c3ccc(Cl)cc3)ccc1C)=C2O (centres unmarked) [Example 2-18, 3-(4′-chloro-4-methylbiphenyl-3-yl)-4-hydroxy-7-(2-methoxyethyl)-1-oxaspiro[4.5]dec-3-en-2-one] | 3410 | 479 |
| Cc1ccc(-c2cccc(Cl)c2)cc1C1=C(O)C2(CCCCC2)CC1=O [Example 6-3, 3-(3′-chloro-4-methylbiphenyl-3-yl)-4-hydroxyspiro[4.5]dec-3-en-2-one] | 16200 | 1390 |
| O=C1C(c2cc(-c3ccc(Cl)cc3Cl)ccc2Cl)C(=O)N2CCOCCN12 [Example 8-9, 8-(2′,4,4′-trichlorobiphenyl-3-yl)tetrahydro-7H-pyrazolo[1,2-d][1,4,5]oxadiazepine-7,9(8H)-dione] | > 20000 | 457 |
| Cc1ccc(-c2ccc(F)cc2)cc1C1=C(O)C2(CCC(OCC(F)(F)F)CC2)NC1=O (centres unmarked) [Example 1-32, 3-(4′-fluoro-4-methylbiphenyl-3-yl)-4-hydroxy-8-(2,2,2-trifluoroethoxy)-1-azaspiro[4.5]dec-3-en-2-one] | 14000 | 860 |
| Cc1ccc(-c2ccc(Cl)cc2)cc1C1=C(O)C2(CCCCC2)OC1=O [Example 2-10, 3-(4′-chloro-4-methylbiphenyl-3-yl)-4-hydroxy-1-oxaspiro[4.5]dec-3-en-2-one] | 2350 | 161 |
| O=C1NC2(CCC3(CC2)OCCO3)C(O)=C1c1cc(-c2ccc(Cl)cc2)ccc1Cl [Example 1-61, 11-(4,4′-dichlorobiphenyl-3-yl)-12-hydroxy-1,4-dioxa-9-azadispiro[4.2.4.2]tetradec-11-en-10-one] | 3910 | 227 |
| Cc1ccc(-c2ccc(Cl)cc2)c(C)c1C1=C(O)C2(CCC3(CCCO3)CC2)NC1=O (centres unmarked) [Example 1-34, 11-(4′-chloro-2,4-dimethylbiphenyl-3-yl)-12-hydroxy-1-oxa-9-azadispiro[4.2.4.2]tetradec-11-en-10-one] | 9400 | 470 |
| Cc1ccc(-c2ccc(Cl)cc2)cc1C1=C(O)C(C)(C2CCCCC2)OC1=O (centres unmarked) [Example 2-40, 3-(4′-chloro-4-methylbiphenyl-3-yl)-5-cyclohexyl-4-hydroxy-5-methylfuran-2(5H)-one] | > 20000 | 1220 |
| Cc1ccc(-c2ccc(F)cc2)c(C)c1C1=C(O)C2(CCC(OCC(F)(F)F)CC2)NC1=O (centres unmarked) [Example 1-31, 3-(4′-fluoro-2,4-dimethylbiphenyl-3-yl)-4-hydroxy-8-(2,2,2-trifluoroethoxy)-1-azaspiro[4.5]dec-3-en-2-one] | 5960 | 963 |
| COC1CCC2(CC1)NC(=O)C(c1cc(-c3ccc(Cl)cc3)ccc1Cl)=C2O (centres unmarked) [Example 1-11, 3-(4,4′-dichlorobiphenyl-3-yl)-4-hydroxy-8-methoxy-1-azaspiro[4.5]dec-3-en-2-one] | 1000 | 240 |
| CC1COC2(CCC3(CC2)NC(=O)C(c2cc(-c4ccc(Cl)cc4)ccc2Cl)=C3O)O1 (centres unmarked) [Example 1-68, 11-(4,4′-dichlorobiphenyl-3-yl)-12-hydroxy-2-methyl-1,4-dioxa-9-azadispiro[4.2.4.2]tetradec-11-en-10-one] | 4860 | 489 |
| Cc1ccc(-c2ccc(Cl)cc2)cc1C1=C(O)C2(CC2)OC1=O [Example 2-8, 6-(4′-chloro-4-methylbiphenyl-3-yl)-7-hydroxy-4-oxaspiro[2.4]hept-6-en-5-one] | > 20000 | 420 |
| CC1OC2(CCC3(CC2)NC(=O)C(c2cc(-c4ccc(Cl)cc4)ccc2Cl)=C3O)OC1C (centres unmarked) [Example 1-71, 11-(4,4′-dichlorobiphenyl-3-yl)-12-hydroxy-2,3-dimethyl-1,4-dioxa-9-azadispiro[4.2.4.2]tetradec-11-en-10-one] | > 20000 | 661 |
| COCC1(C)NC(=O)C(c2cc(-c3ccc(Cl)cc3)ccc2C)=C1O (centres unmarked) [Example 1-46, 3-(4′-chloro-4-methylbiphenyl-3-yl)-4-hydroxy-5-(methoxymethyl)-5-methyl-1,5-dihydro-2H-pyrrol-2-one] | 15800 | 812 |

| Molecule | IC50 [1] [nM] | IC50 [2] [nM] |
| --- | --- | --- |
| O=C1C(c2cc(-c3ccc(Cl)cc3)ccc2Cl)C(=O)N2CCCCN12 [Example 8-2, 2-(4,4′-dichlorobiphenyl-3-yl)tetrahydro-1H-pyrazolo[1,2-a]pyridazine-1,3(2H)-dione] | > 20000 | 891 |
| Cc1ccc(-c2ccc(F)c(F)c2)cc1C1=C(O)C2(CCCC2)OC1=O [Example 2-22, 3-(3′,4′-difluoro-4-methylbiphenyl-3-yl)-4-hydroxy-1-oxaspiro[4.4]non-3-en-2-one] | > 20000 | 824 |
| Cc1ccc(-c2ccc(Cl)cc2Cl)cc1C1=C(O)C2(CCCCC2)CC1=O [Example 6-2, 3-(2′,4′-dichloro-4-methylbiphenyl-3-yl)-4-hydroxyspiro[4.5]dec-3-en-2-one] | 1690 | 337 |
| Cc1ccc(-c2ccc(Cl)cc2)c(C)c1C1=C(O)C2(CCCOC2)NC1=O (centres unmarked) [Example 1-10, 3-(4′-chloro-2,4-dimethylbiphenyl-3-yl)-4-hydroxy-7-oxa-1-azaspiro[4.5]dec-3-en-2-one] | 6400 | 550 |
| CO[C@H]1CC[C@]2(CC1)NC(=O)C(c1cc(-c3ccc(F)c(Cl)c3)ccc1C)=C2O [Example 1-43, (5s,8s)-3-(3′-chloro-4′-fluoro-4-methylbiphenyl-3-yl)-4-hydroxy-8-methoxy-1-azaspiro[4.5]dec-3-en-2-one] | 10200 | 304 |
| COCC1CCC2(CC1)NC(=O)C(c1cc(-c3ccc(Cl)cc3)ccc1C)=C2O (centres unmarked) [Example 1-56, 3-(4′-chloro-4-methylbiphenyl-3-yl)-4-hydroxy-8-(methoxymethyl)-1-azaspiro[4.5]dec-3-en-2-one] | 320 | 430 |
| Cc1ccc(-c2ccc(Cl)cc2)cc1-c1c(O)c2ccccc2[nH]c1=O [Example 9-5, 3-(4′-chloro-4-methylbiphenyl-3-yl)-4-hydroxyquinolin-2(1H)-one] | > 20000 | 625 |
| Cc1ccc(-c2ccc(Cl)cc2)cc1C1=C(O)C2CSCCN2C1=O (centres unmarked) [Example 1-21, 7-(4′-chloro-4-methylbiphenyl-3-yl)-8-hydroxy-1,3,4,8a-tetrahydro-6H-pyrrolo[2,1-c][1,4]thiazin-6-one] | 15100 | 533 |
| COC1CCC2(CC1)NC(=O)C(c1c(C)cc(C)c(-c3ccc(Cl)cc3)c1C)=C2O (centres unmarked) [Example 1-9, 3-(4′-chloro-2,4,6-trimethylbiphenyl-3-yl)-4-hydroxy-8-methoxy-1-azaspiro[4.5]dec-3-en-2-one] | 626 | 16600 |
| Cc1ccc(-c2ccc(Cl)cc2)cc1C1=C(O)C2(CCOC(C)C2)NC1=O (centres unmarked) [Example 1-3, 3-(4′-chloro-4-methylbiphenyl-3-yl)-4-hydroxy-7-methyl-8-oxa-1-azaspiro[4.5]dec-3-en-2-one] | 5400 | 450 |
| CCOC1CCC2(CC1)NC(=O)C(c1cc(-c3ccc(Cl)cc3)ccc1C)=C2O (centres unmarked) [Example 1-28, 3-(4′-chloro-4-methylbiphenyl-3-yl)-8-ethoxy-4-hydroxy-1-azaspiro[4.5]dec-3-en-2-one] | 192 | 443 |
| Cc1ccc(-c2ccc(Cl)cc2)cc1C1=C(O)C2(CCCCCCC2)NC1=O [Example 1-23, 3-(4′-chloro-4-methylbiphenyl-3-yl)-4-hydroxy-1-azaspiro[4.7]dodec-3-en-2-one] | 485 | 584 |
| COC1CCCC2(C1)OC(=O)C(c1c(C)cc(C)c(-c3ccc(Cl)cc3)c1C)=C2O (centres unmarked) [Example 2-12, 3-(4′-chloro-2,4,6-trimethylbiphenyl-3-yl)-4-hydroxy-7-methoxy-1-oxaspiro[4.5]dec-3-en-2-one] | 1150 | 4170 |
| Cc1ccc(-c2ccc(C)c(C3=C(O)C4(CCCCC4)CC3=O)c2)cc1 [Example 6-1, 3-(4,4′-dimethylbiphenyl-3-yl)-4-hydroxyspiro[4.5]dec-3-en-2-one] | 16000 | 655 |
| CC1(C)COC2(CCC3(CC2)NC(=O)C(c2cc(-c4ccc(Cl)cc4)ccc2Cl)=C3O)OC1 [Example 1-65, 3-(4,4′-dichlorobiphenyl-3-yl)-4-hydroxy-11,11-dimethyl-9,13-dioxa-1-azadispiro[4.2.5.2]pentadec-3-en-2-one] | 9470 | 934 |
| Cc1ccc(-c2ccc(Cl)cc2)cc1C1=C(O)C2(CCC3(CC2)OCCO3)OC1=O [Example 2-15, 11-(4′-chloro-4-methylbiphenyl-3-yl)-12-hydroxy-1,4,9-trioxadispiro[4.2.4.2]tetradec-11-en-10-one] | 3680 | 204 |
| COCC1CCC2(CC1)OC(=O)C(c1cc(-c3ccc(Cl)cc3)ccc1Cl)=C2O (centres unmarked) [Example 2-16, 3-(4,4′-dichlorobiphenyl-3-yl)-4-hydroxy-8-(methoxymethyl)-1-oxaspiro[4.5]dec-3-en-2-one] | 3340 | 180 |
